Earlier results as cited in patent US10215758B2, “Platinum-labeled probes for mass cytometry” (priority 2015, dated 2019).

Conditions: human, in vivo; cited from earlier work

## N.N.[Cl][Pt][Cl] [cisplatin, cis-diamminedichloroplatinum(II)]
  binding to serum protein: most cisplatin binds to serum protein within hours
